Entries after “also recorded” stand apart in the source; their conditions may differ.
How the values were obtained:
[1] = system: primary peritoneal macrophages of C57BL/6J mice; assay: Interleukin-6 secretion (ELISA) from LPS-stimulated peritoneal macrophages; type: cell-based; conditions: for secretion of interleukin 6: LPS-stimulated macrophages, screening (Fig. 4)
Description: (§1) Peritoneal macrophages (PM) were isolated from the peritoneal exudate of 30 male C57bl/6j mice. To accumulate PM, 1 ml of 3% peptone solution was injected intraperitoneally. After 3 days the mice were euthanized by cervical dislocation. Cells of peritoneal exudate were obtained by aseptically washing the abdominal cavity with 5 ml of sterile Hanks’s solution (+ 4-6 °C) without calcium and magnesium ions. The total number and viability of cells were assessed in a Goryaev counting chamber (Russia) with a 0.4% trypan blue staining (Sigma-Aldrich, USA). The cell concentration was adjusted to 1.0×10^6 cells/ml in DMEM (Gibco) supplemented with 2 mM L-glutamine (Gibco), 10% heat-inactivated fetal bovine serum (BioClot, Germany), 100 U/ml penicillin and […] streptomycin (Gibco) and plated 200 μl/well in 96-well transparent plates (SPL Life Sciences Co., Ltd., Korea). It was left for 2 h at 37°C in a humidified atmosphere with 5% CO2, after which the wells were washed to remove non-adherent cells. After 24 hours of incubation, 20 μl of the supernatant was removed and 20 μl of solutions of test compounds were added 30 min before E. coli O127:B8 LPS (100 ng/ml final concentration). Experiments were run in 3 independent replicates.
Cell supernatant was collected and centrifuged at 1000 g for 20 min in a 2-16PK Sigma centrifuge (Germany). The concentration of IL-6 was determined by ELISA using a commercial kit (Cloud-clone ELISA kit) with a microplate reader Infinite M200 PRO (Tecan, Austria).

[2] = Cytotoxicity study (LDH activity in the medium) in peritoneal macrophages; type: cell-based; conditions: male, C57BL/6J, mouse, primary peritoneal macrophages; murine peritoneal macrophages, LDH, unit printed in Cyrillic
Description: as §1
(§2) The activity of lactate dehydrogenase (LDH) in a cell culture medium served as a marker of membrane permeability and cell death. Aliquotes of supernatants were taken after 24 h of inoculation with test compounds, mixed with 250 μl of […] NADH solution in 54 mM phosphate buffered saline (pH 7.5). Then, 25 μl of a 6.48 mM pyruvate solution was added to the mixture. The optical density was followed at a wavelength of 340 nm for 20 min. Conversion of optical density into cell viability was carried out according to a standard curve (DMSO-treated cells as 100% and 0.01% Triton X-100-treated cells as 0% viable cells).

NHE-1 [3] = molecular target: T1, NHE-1 (Oryctolagus cuniculus, UniProt P23791); assay: NHE-1 inhibition assay on rabbit platelets (platelet shape change after acidification with sodium propionate, laser aggregometer); type: cell-based; conditions: for inhibition at 0.01 µM: 10 nM, rabbit platelet-rich plasma, decimal commas, read-out: NHE-1 inhibition at 10 nM, m ± SD, n = 6 (%); for NHE-1 inhibitory activity (in words): compared with reference drugs
T1 construct: endogenous in cells; host or cells: rabbit platelets in platelet-rich plasma (male rabbits)
Description: Evaluation of NHE-1 inhibition was carried out on rabbit platelets by the known method[39],[40]. The experiments were carried out on 15 male rabbits weighing 3.0-4.0 kg. Platelet-rich plasma (PRP) was obtained by centrifuging blood with 3.8% sodium citrate (1:10) at 1000 rpm for 12 min (Multi centrifuge CM 6M, Latvia). Platelet shapeshifting due to acidification was followed with a laser aggregometer BIOLA-220 LA (Russia). Test compounds (10 μl, 10 nM final concentration) were added to 200 μl of PRP 5 min in a cuvette before the addition of sodium propionate solution, incubated with constant stirring using a magnetic stirrer (800 rpm, 37 °C). To control samples for NHE-1 activation, a buffer solution containing sodium propionate was added to 200 μL of PRP (600 μL, 135 mM sodium propionate, 20 mM HEPES, 1 mM CaCI2, 1 mM MgCI2, 10 mM glucose; pH 6.7). The change in light transmission at pH 7.4, 37 °C was monitored in a Krebs solution (600 μL, 120 mM NaCl, 4.8 mM KCl, 1.2 mM KH2PO4, 2.5 mM MgSO4, 25 mM NaHCO3, 2.6 mM CaCl2, 5.4 mM glucose; pH 7.4). Test compounds were added to a final concentration of 10 nM to the cuvette into 200 μl of PRP 5 min before adding the sodium propionate solution, incubated with constant stirring using a magnetic stirrer (800 rpm, 37 °C). NHE-1 inhibitors zoniporide, rimeporide, amiloride were used as reference drugs. Assays were run in 6 independent series.

NHE-1 [4] = molecular target: T1, NHE-1; assay: as above; type: cell-based
rabbit platelets = assay: ADP-induced platelet aggregation assay in rabbit platelet-rich plasma; type: cell-based; conditions: 100 μM, ADP 5 μM
Description: (§3) Functional activity of platelets was determined on a two-channel laser analyzer of platelet aggregation "BIOLA-220 LA" (Russia) as described previously. The experiments were carried out on 6 male rabbits weighing 3.5–4 kg. To prepare platelet-rich plasma (PRP) venous blood was taken from the ear marginal vein of a rabbit, stabilized with a 3.8% sodium citrate solution in a ratio of 9:1 and centrifuged for 10 min at 1500 rpm. PRP (300 μL) and a solution of the test compound at a concentration of 100 μM were sequentially introduced into the cell of the aggregometer. The samples were incubated in thermostated cells of the aggregometer at 37 °C for 5 min. To induce aggregation adenosine-5-diphosphoric acid (ADP, Sigma, USA) at a final concentration of 5 μM, was added to the cuvette. Acetylsalicylic acid (Shandong Xinhua Pharmaceutical Co., Ltd., China) was used as a reference drug. Experiments were run in 5 independent replicates.

intraocular pressure = assay: Intraocular pressure studies in outbred rats (TonoVet); type: in vivo
Description: The experiments were carried out on 75 adult outbred rats of both sexes, which were kept in standard cages at a temperature of 25 °C and a standard light regime. Animals were randomly assigned to the control and experimental groups (n = 5). Before the start of the experiment, the rats had free access to food and water. Intraocular pressure (IOP) was measured with a TonoVet device (Finland)[44] which measures IOP with a short touch of a small disposable tip in the center of the cornea, no corneal anesthesia is required. The study was carried out according to the published method. One drop (50 μl) of a test 0.4% solution of the compound was instilled into the right eye, and deionized water was added to the left eye. IOP was measured in both eyes. The left eye, in turn, serves to assess the possible systemic exposure of the test compounds. […] IOP-lowering activity was assessed as the maximum decrease in IOP from the initial values. At 9:00 AM, baseline IOP was measured in animals of all groups. Experiments were run in 5 independent replicates.

[5] = system: primary peritoneal macrophages of C57BL/6J mice; assay: Cytotoxicity study (LDH activity in the medium) in peritoneal macrophages; type: cell-based; conditions: 100 μM, peritoneal macrophages
Description: as §1, §2

[6] = system: primary peritoneal macrophages of C57BL/6J mice; assay: Nitric oxide synthesis (nitrite, Griess reagent) in LPS-stimulated peritoneal macrophages; type: cell-based; conditions: 100 μM
Description: as §1
The accumulation of nitrite anion (a stable end product of NO decomposition produced by iNOS) in supernatants was determined using a standard Griess reagent. Briefly, 50 μl of supernatants collected 22 hours after incubation of PM with test and control compounds were mixed with 50 μl of 1% sulfonamide in 2.5% H3PO4 and 50 μl of 0.1% N-(1-naphthyl) ethylenediamine in 2,5% H3PO4. After incubation at 23 °C for 10 min in an orbital shaker, the optical density was determined at a wavelength of 550 nm with a microplate reader Infinite M200 PRO (Tecan, Austria).

[7] = Solubility under the conditions of the platelet aggregation assay; type: physicochemical; conditions: antiplatelet assay
Description: Test compounds were dissolved in 99% DMSO (stock concentration 40 mM) and stored at –25 °C. If sediment or opalescence was detected, 5% Tween 20 (Merck) was added. Serial dilutions were prepared ex tempore in a media suitable for the particular study. Final concentration in samples: DMSO <0.25%, Tween 20 <0.025% (were added to control samples in equal concentrations).
as §3

T1 sequence (P23791 whole entry): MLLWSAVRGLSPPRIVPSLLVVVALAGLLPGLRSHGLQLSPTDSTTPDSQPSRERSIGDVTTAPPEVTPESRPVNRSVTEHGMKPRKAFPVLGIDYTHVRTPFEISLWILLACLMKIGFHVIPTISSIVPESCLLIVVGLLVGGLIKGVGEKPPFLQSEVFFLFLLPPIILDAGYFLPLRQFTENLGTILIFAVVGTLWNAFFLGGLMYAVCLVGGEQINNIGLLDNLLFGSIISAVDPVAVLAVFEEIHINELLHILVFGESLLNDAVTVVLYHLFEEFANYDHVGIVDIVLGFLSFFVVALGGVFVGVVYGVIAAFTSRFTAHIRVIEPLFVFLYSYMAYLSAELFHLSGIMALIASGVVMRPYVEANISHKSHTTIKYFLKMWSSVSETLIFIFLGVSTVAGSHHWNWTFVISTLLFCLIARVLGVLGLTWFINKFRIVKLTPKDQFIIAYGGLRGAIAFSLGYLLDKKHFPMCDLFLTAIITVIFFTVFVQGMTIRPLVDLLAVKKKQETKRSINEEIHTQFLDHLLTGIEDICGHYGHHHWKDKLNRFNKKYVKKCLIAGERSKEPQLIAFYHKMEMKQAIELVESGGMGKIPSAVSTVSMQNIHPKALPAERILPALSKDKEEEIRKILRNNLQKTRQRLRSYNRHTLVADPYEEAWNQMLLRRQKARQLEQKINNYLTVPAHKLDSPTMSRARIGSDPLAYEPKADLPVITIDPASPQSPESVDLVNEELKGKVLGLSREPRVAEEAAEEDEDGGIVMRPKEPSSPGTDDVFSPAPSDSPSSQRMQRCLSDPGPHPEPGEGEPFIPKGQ

Row | Structure (SMILES) | melting point | inhibition at 0.01 µM (NHE-1 [3]) | IC50 (NHE-1 [4]) | NHE-1 inhibitory activity (in words) (NHE-1 [3]) | other results
1 | CC(c1nnc(N)[nH]1)n1c(=O)c2ccccc2n(C)c1=O (centres unmarked) (hydrate or solvate) [Compound 3f, 3-[1-(5-Amino-4H-1,2,4-triazol-3-yl)ethyl]-1-methylquinazoline-2,4(1H,3H)-dione] | 91 to 93 °C | – | – | – | –
2 | C=CCn1c(=O)n(C(C)c2nnc(N)[nH]2)c(=O)c2ccccc21 (centres unmarked) (hydrate or solvate) [Compound 3h, 3-[1-(5-Amino-4H-1,2,4-triazol-3-yl)ethyl]-1-(prop-2-en-1-yl)quinazoline-2,4(1H,3H)-dione] | 116 to 118 °C | – | – | – | –
3 | N=C(N)NC(=O)c1nc(Cl)c(N)nc1N [Amiloride, amiloride, reference compound] | – | 16.4% | 1230 nM | – | IC50 ([1]; Mus musculus, Peritoneal macrophage, LPS-stimulated murine macrophages, unit printed in Cyrillic, read-out: IC50 of IL-6 secretion): 9.52 µM; CC50 at 24 h [2]: > 100 µM
4 | Cn1c(=O)n(CC(=O)NC(=N)N)c(=O)c2ccccc21 [Compound 3a, N-Carbamimidoyl-2-(1-methyl-2,4-dioxo-1,4-dihydroquinazolin-3(2H)-yl)acetamide] | 266 to 269 °C | 33.7% | 293 nM | comparable to the reference drug rimeporide | antiplatelet activity versus acetylsalicylic acid (rabbit platelets): exceeded the activity of the reference drug, acetylsalicylic acid
5 | CC(C(=O)NC(=N)N)n1c(=O)c2ccccc2n(C)c1=O (centres unmarked) [Compound 3b, N-Carbamimidoyl-2-(1-methyl-2,4-dioxo-1,4-dihydroquinazolin-3(2H)-yl)propanamide] | 216 to 219 °C | 1.49% | – | – | secretion of interleukin 6 [1]: suppressed
6 | N=C(N)NC(=O)Cn1c(=O)c2ccccc2n(Cc2ccccc2)c1=O [Compound 3c, 2-(1-Benzyl-2,4-dioxo-1,4-dihydroquinazolin-3(2H)-yl)-N-carbamimidoylacetamide] | 180 to 183 °C | 7.3% | – | – | secretion of interleukin 6 [1]: suppressed
7 | Cn1c(=O)n(CC(=O)NC(=N)N)c(=O)c2cc(Br)ccc21 [Compound 3d, 2-(6-Bromo-1-methyl-2,4-dioxo-1,4-dihydroquinazolin-3(2H)-yl)-N-carbamimidoylacetamide] | – | 33.2% | 961 nM | comparable to the reference drug rimeporide | IOP-lowering effect size (intraocular pressure; compared with zoniporide and timolol): comparable to zoniporide and superior to timolol; IOP-lowering activity (intraocular pressure; one drop (50 μl) of 0.4% solution instilled): statistically significant activity; also recorded: markedly reduce intraocular pressure; effect on cell viability [5]: absence of a statistically significant effect on cell viability; inhibition of the synthesis of nitric oxide [6]: statistically significantly inhibit
8 | CC(c1nnc(N)[nH]1)n1c(=O)c2ccccc2n(C)c1=O (centres unmarked) [Compound 3f, 3-[1-(5-Amino-4H-1,2,4-triazol-3-yl)ethyl]-1-methylquinazoline-2,4(1H,3H)-dione] | – | 29.8% | – | – | antiplatelet activity versus acetylsalicylic acid (rabbit platelets): exceeded the activity of the reference drug, acetylsalicylic acid
9 | C=CCn1c(=O)n(Cc2nnc(N)[nH]2)c(=O)c2ccccc21 [Compound 3g, 3-[(5-Amino-4H-1,2,4-triazol-3-yl)methyl]-1-(prop-2-en-1-yl)quinazoline-2,4(1H,3H)-dione] | 275 to 277 °C | 10.4% | – | – | –
10 | C=CCn1c(=O)n(C(C)c2nnc(N)[nH]2)c(=O)c2ccccc21 (centres unmarked) [Compound 3h, 3-[1-(5-Amino-4H-1,2,4-triazol-3-yl)ethyl]-1-(prop-2-en-1-yl)quinazoline-2,4(1H,3H)-dione] | – | 33.2% | – | comparable to the reference drug rimeporide | antiplatelet activity versus acetylsalicylic acid (rabbit platelets): exceeded the activity of the reference drug, acetylsalicylic acid
11 | Nc1nnc(Cn2cnc3ccccc3c2=O)[nH]1 [Compound 6a, 3-[(5-Amino-4H-1,2,4-triazol-3-yl)methyl]quinazolin-4(3H)-one] | – | 54.1% | 6.7 nM | more potent and comparable to zoniporide | solubility under assay conditions [7]: insoluble under assay conditions
12 | [H]/N=C(\N)NC(=O)c1cc(S(C)(=O)=O)c(S(C)(=O)=O)cc1C [Rimeporide, rimeporide, reference compound] | – | 34.2% | – | – | –
13 | N=C(N)NC(=O)c1cnn(-c2cccc3ncccc23)c1C1CC1 [Zoniporide, zoniporide, reference compound] | – | 48% | 7.3 nM | – | –
